In patent US10577378B2, “EIF4A-inhibiting compounds and methods related thereto” (eFFECTOR Therapeutics, Inc., priority 2015, dated 2020):

Each compound was assayed on MDA-MB-231 human breast cancer cells (assay: Cell proliferation assay (CellTiter-Glo, 72 hours treatment)). Details: Homo sapiens; MDA-MB-231 cells, 72 hours at 37° C., CellTiter-Glo; read-out: MDA-MB-231 cell proliferation assay (IC50).
Assay type: cell-based
Method in brief: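 MDA-MB-231 cells seeded at 2,500 cells/well, treated next day with compound or DMSO vehicle for 72 h at 37 °C. Proliferation read by CellTiter-Glo; IC50 from sigmoidal non-linear regression, binned as +++ (<100 nM), ++ (100–1000 nM), + (>1000 nM).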
For `COC(=O)[C@@H]1[C@@H](c2ccccc2)[C@]2(c3ccc(C#N)cc3)Oc3cc(Cl)cnc3[C@]2(O)[C@H]1C#N` (racemic) [50F, Rac-methyl (5aR,6S,7R,8R,8aR)-3-chloro-8-cyano-5a-(4-cyanophenyl)-8a-hydroxy-6-phenyl-5a,7,8,8a-tetrahydro-6H-cyclopenta[4,5]furo[3,2-b]pyridine-7-carboxylate], the IC50 was 100 to 1000 nM. `CN(C)C(=O)[C@H]1[C@@H](O)[C@@]2(O)c3c(C#N)cncc3O[C@@]2(c2ccc(C#N)cc2)[C@@H]1c1ccccc1` (racemic) [96F, Rac-(4bS,5R,6R,7S,7aR)-4-cyano-7a-(4-cyanophenyl)-4b,5-dihydroxy-N,N-dimethyl-7-phenyl-4b,6,7,7a-tetrahydro-5H-cyclopenta[4,5]furo[2,3-c]pyridine-6-carboxamide] gave an IC50 greater than 1000 nM. In the case of `N#Cc1ccc([C@@]23Oc4cc(Cl)cnc4[C@]2(O)[C@H](O)[C@H](CO)[C@H]3c2ccccc2)cc1` (racemic) [56F, Rac-4-((5aR,6S,7S,8R,8aS)-3-chloro-8,8a-dihydroxy-7-(hydroxymethyl)-6-phenyl-6,7,8,8a-tetrahydro-5aH-cyclopenta[4,5]furo[3,2-b]pyridin-5a-yl)benzonitrile], the IC50 is reported as greater than 1000 nM. In the case of `COc1cncc2c1[C@]1(O)[C@H](O)[C@H](C(=O)N(C)CC(F)(F)F)[C@@H](c3ccccc3)[C@]1(c1ccc(Br)cc1)O2` (racemic) [88F, Rac-(4bS,5R,6R,7S,7aR)-7a-(4-bromophenyl)-4b,5-dihydroxy-4-methoxy-N-methyl-7-phenyl-N-(2,2,2-trifluoroethyl)-4b,6,7,7a-tetrahydro-5H-cyclopenta[4,5]furo[2,3-c]pyridine-6-carboxamide], the IC50 is reported as less than 100 nM. `COc1cncc2c1[C@]1(O)[C@H](O)[C@H](C(=O)N(C)C)[C@@H](c3ccccc3)[C@]1(c1ccc(C)cc1)O2` (racemic) [255F, rac-(4bS,5R,6R,7S,7aR)-4b,5-dihydroxy-4-methoxy-N,N-dimethyl-7-phenyl-7a-(p-tolyl)-4b,6,7,7a-tetrahydro-5H-cyclopenta[4,5]furo[2,3-c]pyridine-6-carboxamide] showed an IC50 of 100 to 1000 nM. In the case of `COc1nc(C#N)cc2c1[C@]1(O)[C@H](O)[C@H](CNC(C)(C)C)[C@@H](c3ccccc3)[C@]1(c1ccc(C#N)cc1)O2` (racemic) [155F, Rac-(5aR,6S,7S,8R,8aS)-7-((tert-butylamino)methyl)-5a-(4-cyanophenyl)-8,8a-dihydroxy-1-methoxy-6-phenyl-5a,7,8,8a-tetrahydro-6H-cyclopenta[4,5]furo[3,2-c]pyridine-3-carbonitrile], the IC50 is reported as 100 to 1000 nM. Compound `COc1nc(Cl)cc2c1[C@]1(O)[C@H](O)[C@H](CN3CC(F)(F)C3)[C@@H](c3ccccc3)[C@]1(c1ccc(C#N)cc1)O2` (racemic) [207Fb, Rac-4-((5aR,6S,7S,8R,8aS)-3-chloro-7-((3,3-difluoroazetidin-1-yl)methyl)-8,8a-dihydroxy-1-methoxy-6-phenyl-6,7,8,8a-tetrahydro-5aH-cyclopenta[4,5]furo[3,2-c]pyridin-5a-yl)benzonitrile] has an IC50 of 100 to 1000 nM. For `COc1ccc2c(n1)O[C@@]1(c3ccc(C#N)cc3)[C@H](c3ccccc3)[C@@H](C(=O)N(C)C)[C@@H](O)[C@@]21O` (racemic) [15F, Rac-(4bS,5R,6R,7S,7aR)-7a-(4-cyanophenyl)-4b,5-dihydroxy-2-methoxy-N,N-dimethyl-7-phenyl-4b,6,7,7a-tetrahydro-5H-cyclopenta[4,5]furo[2,3-b]pyridine-6-carboxamide], the IC50 was greater than 1000 nM. `CN(C)C(=O)[C@H]1[C@@H](O)[C@@]2(O)c3ncc(Cl)cc3O[C@@]2(c2ccc(Cl)cc2)[C@@H]1c1ccccc1` (single isomer, unassigned) [11F] was tested, and the IC50 was 100 to 1000 nM. Compound `COc1nc(Cl)cc2c1[C@]1(O)[C@H](O)[C@H](C(=O)O)[C@@H](c3ccccc3)[C@]1(c1ccc(Br)cc1)O2` (racemic) [295F, rac-(5aR,6S,7R,8R,8aS)-5a-(4-bromophenyl)-3-chloro-8,8a-dihydroxy-1-methoxy-6-phenyl-5a,7,8,8a-tetrahydro-6H-cyclopenta[4,5]furo[3,2-c]pyridine-7-carboxylic acid] has an IC50 of less than 100 nM. With `COc1cncc2c1[C@]1(O)[C@@H](CNC(C)(C)C)[C@H](CO)[C@@H](c3ccccc3)[C@]1(c1ccc(Br)cc1)O2` (racemic) [226F, Rac-(4bR,5R,6R,7S,7aR)-7a-(4-bromophenyl)-5-((tert-butylamino)methyl)-6-(hydroxymethyl)-4-methoxy-7-phenyl-5,6,7,7a-tetrahydro-4bH-cyclopenta[4,5]furo[2,3-c]pyridin-4b-ol] the IC50 was less than 100 nM. Work on `COc1cncc2c1[C@]1(O)[C@H](O)[C@H](CN(C)C(C)(C)C)[C@@H](c3ccccc3)[C@]1(c1ccc(C#N)cc1)O2` (single isomer, unassigned) [243F] yielded an IC50 of 100 to 1000 nM. With `COc1cncc2c1[C@]1(O)[C@@H](CN)[C@H](CO)[C@@H](c3ccccc3)[C@]1(c1ccc(C#N)cc1)O2` (racemic) [171F, Rac-4-((4bR,5R,6R,7S,7aR)-5-(aminomethyl)-4b-hydroxy-6-(hydroxymethyl)-4-methoxy-7-phenyl-4b,5,6,7-tetrahydro-7aH-cyclopenta[4,5]furo[2,3-c]pyridin-7a-yl)benzonitrile] the IC50 was 100 to 1000 nM. `Clc1cnc2c(c1)O[C@@]1(c3ccc(Br)cc3)[C@H](c3ccccc3)C[C@@H]3O[C@@]231` (racemic) [63F, Rac-(1aS,3S,3aR,8bS)-3a-(4-bromophenyl)-6-chloro-3-phenyl-1a,2,3,3a-tetrahydro-oxireno[2″,3″:1′,5′]cyclopenta[1′,2′:4,5]furo[3,2-b]pyridine] showed an IC50 greater than 1000 nM. `COc1nc(C#N)cc2c1[C@]1(O)[C@H](O)[C@H](CN3CCC(F)(F)CC3)[C@@H](c3ccccc3)[C@]1(c1ccc(Br)cc1)O2` (racemic) [157Fa, Rac-(5aR,6S,7S,8R,8aS)-5a-(4-bromophenyl)-7-((4,4-difluoropiperidin-1-yl)methyl)-8,8a-dihydroxy-1-methoxy-6-phenyl-5a,7,8,8a-tetrahydro-6H-cyclopenta[4,5]furo[3,2-c]pyridine-3-carbonitrile] showed an IC50 of 100 to 1000 nM. Compound `COc1cncc2c1[C@]1(O)[C@@H](CN(C)C)[C@H](CO)[C@@H](c3ccccc3)[C@]1(c1ccc(C#N)cc1)O2` (racemic) [206F, Rac-4-((4bR,5R,6R,7S,7aR)-5-((dimethylamino)methyl)-4b-hydroxy-6-(hydroxymethyl)-4-methoxy-7-phenyl-4b,5,6,7-tetrahydro-7aH-cyclopenta[4,5]furo[2,3-c]pyridin-7a-yl)benzonitrile] has an IC50 of less than 100 nM. With `N#Cc1ccc([C@@]23Oc4cc(Cl)cnc4[C@]2(O)[C@H](O)[C@H](S(=O)(=O)Cc2ccccc2)[C@H]3c2ccccc2)cc1` (racemic) [94F, Rac-4-((5aR,6S,7R,8S,8aS)-7-(benzylsulfonyl)-3-chloro-8,8a-dihydroxy-6-phenyl-6,7,8,8a-tetrahydro-5aH-cyclopenta[4,5]furo[3,2-b]pyridin-5a-yl)benzonitrile] the IC50 was greater than 1000 nM. `CN(C)C(=O)[C@@H]1[C@@H](c2ccccc2)[C@]2(c3ccc(C#N)cc3)Oc3cc(Cl)cnc3[C@]2(O)[C@H]1C#N` (racemic) [51F, Rac-(5aR,6S,7R,8R,8aR)-3-chloro-8-cyano-5a-(4-cyanophenyl)-8a-hydroxy-N,N-dimethyl-6-phenyl-5a,7,8,8a-tetrahydro-6H-cyclopenta[4,5]furo[3,2-b]pyridine-7-carboxamide] showed an IC50 of 100 to 1000 nM.
